PMC9146377, “Design and Synthesis of Novel Bis-Imidazolyl Phenyl Butadiyne Derivatives as HCV NS5A Inhibitors” (Pharmaceuticals, 2022)
Like-named read-outs stand apart in the source and are kept apart here.

Columns and labels:
[1] = system: (+) strand HCV RNA, Con1 (GT 1b) subgenomic replicon; test: RT-qPCR quantification of HCV RNA in Huh5-2 replicon cells; format: cell-based, Hepatitis C virus; conditions: normalized to YWHAZ
Procedure: (§1) The potency of compound 10a measured by the luciferase assay in HCV GT 1b was confirmed at the level of viral RNA and NS5A protein expression. Huh5-2 replicon cells were treated with 10a in serial dilutions, or its solvent DMSO (control), and viral RNA was quantified by reverse transcription-quantitative polymerase chain reaction (RT-qPCR). NS5A protein levels were evaluated by indirect immunofluorescence combined with confocal microscopy analysis. […] Nuclei were stained with propidium iodide (PI) as a cell viability control.
Extraction of total RNA from Huh5-2 cells was performed using TRIzol reagent (Ambion, Austin, TX, USA), according to the manufacturer’s instructions. Replicon RNA was quantified with reverse transcription (RT) and quantitative real-time polymerase chain reaction (qPCR). RT was performed using a Con1 IRES-specific primer (IRES-R: 5′-[…]-3′) and Moloney Murine Leukemia Virus (MMLV) reverse transcriptase (Promega). […]
Figure 6 Inhibition of HCV RNA and protein expression levels exerted by compound 10a in HCV Con1 (GT 1b) subgenomic replicon cell line. […] Values are expressed as a percentage of those obtained from cells treated with the solvent (control). […]

[2] = system: subgenomic replicon of HCV GT 2a (strain JFH1); test: Anti-HCV luciferase assay, genotype 2a replicon in Huh7-JFH1 cells; format: cell-based, Hepatitis C virus; conditions: for EC50: Huh7-JFH1 cells
Procedure: (§2) Specifically, we determined the activity of 10a against viral replication by measuring luciferase activity in Huh7-JFH1, Huh7.5-3a, and Huh7.5-4a stable cell lines containing subgenomic replicons of HCV GT 2a (strain JFH1), GT 3a (strain S52) and GT 4a (strain ED43), respectively. In addition, the activity of 10a was determined in Huh7-Lunet cells electroporated with the in vitro transcribed full-length reporter viral RNA of HCV genotype 1a (strain H77S.3).
Huh5-2 [65] and Huh7-JFH1 [66] stable cell lines harbor the subgenomic HCV reporter replicon I389luc-ubi-neo/NS3-3′/Con1/5.1 (genotype 1b; strain Con1) and I389luc-ubi-neo/NS3-3′_dg_JFH1 (genotype 2a, JFH1 strain), respectively (kindly provided by R. Bartenschlager, Heidelberg University, Heidelberg, Germany). Huh7.5-3a and Huh7.5-4a stable cell lines harbor the subgenomic HCV reporter replicon S52-SG (Feo) (AII) (genotype 3a; S52 strain) and ED43-SG (Feo) (VYG) (genotype 4a; ED43 strain), respectively (viral constructs kindly provided by C.M. Rice, Rockefeller University, New York, NY, USA). […]
(§3) The anti-HCV assay in replicon cells was performed by seeding 1 × 10^4 cells per well in a 96-well plate. […] Cells were lysed after 72 h, and F-Luc activity was measured. […] At 72 h post-treatment, cell supernatants were collected, and G-Luc activity was measured. In addition, the cells were lysed for total protein quantification.
(§4) Relative luminescence units (RLU) were expressed as a percentage of the respective units derived from DMSO-treated cells (control). […]
(§5) The F-Luc activity was measured using the Luciferase Assay System (Promega, Madison, WI, USA), as recommended by the manufacturer. The G-Luc activity was measured using 12 μM coelenterazine (Promega) in assay buffer (50 mM potassium phosphate, pH 7.4, 500 mM NaCl, 1 mM EDTA). […] The F-Luc activity was normalized to the total protein amount determined using the Bradford assay reagent (Pierce, Waltham, MA, USA).

[3] = Phase I and phase II metabolic stability in human liver S9 fractions; format: in vitro ADME; conditions: LC-MS/MS, read-out: half-life time (t½)
Procedure: This was done using human liver S9 fractions, following the previously reported protocol. A number of samples were taken at defined time points, and using LC-MS/MS, the remaining percentage of the parent compound was determined.

[4] = system: NS5A protein expression, HCV Con1 (GT 1b); test: Indirect immunofluorescence for NS5A in Huh5-2 replicon cells; format: cell-based, Hepatitis C virus; conditions: 10-fold serial dilutions, confocal microscopy
Procedure: as §1
An indirect immunofluorescence analysis of Con1 NS5A was performed as described previously. Propidium iodide (Sigma-Aldrich, St. Louis, MO, USA) was used to stain the DNA. Images were obtained with a Leica TCS-SP8 Confocal Microscope (Wetzlar, Germany).
Figure 6 Inhibition of HCV RNA and protein expression levels exerted by compound 10a in HCV Con1 (GT 1b) subgenomic replicon cell line. (A) RT-qPCR analysis of (+) strand HCV RNA levels in Huh5-2 replicon cells treated with 10-fold serial dilutions of compound 10a or the solvent DMSO. Values are expressed as a percentage of those obtained from cells treated with the solvent (control). The housekeeping gene YWHAZ (tyrosine 3-monooxygenase/tryptophan 5-monooxygenase activation protein zeta) was used as a normalization control. […]

[5] = system: subgenomic replicon of HCV GT 4a (strain ED43); test: Anti-HCV luciferase assay, genotype 4a replicon in Huh7.5-4a cells; format: cell-based, Hepatitis C virus
Procedure: as §2, with “H77S.3). […]” for “H77S.3).”
as §3, §4, §5

Compound: COC(=O)N[C@@H](C(=O)N1CCC[C@H]1c1ncc(-c2cccc(C#CC#Cc3cccc(-c4cnc([C@@H]5CCCN5C(=O)[C@H](NC(=O)OC)c5ccccc5)[nH]4)c3)c2)[nH]1)c1ccccc1 [Compound 10a, Dimethyl ((1R,1′R)-((2S,2′S)-((buta-1,3-diyne-1,4-diylbis(3,1-phenylene))bis(1H-imidazole-5,2-diyl))bis(pyrrolidine-2,1-diyl))bis(2-oxo-1-phenylethane-2,1-diyl))dicarbamate]
- EC50 ([1]; Hepatitis C virus, GT1B, Huh-5-2, RT-qPCR): 0.255 nM
- EC50 ([1]; RT-qPCR): 0.25 nM
- Gt2a SI [2]: >3567.61
- EC50 ([2]; Hepatitis C virus, GT2A): 28 nM
- EC50 ([2]; listed as Comp. 10a, read-out: Gt2a EC50): 28 nM
- half-life [3]: > 2 h
- melting point: 126 to 128 °C
- NS5A protein expression [4]: reduction of NS5A expression
- Gt4a SI ([5]; ED43 replicon): >1537.52
- EC50 ([5]; Hepatitis C virus, GT4A, read-out: Gt4a EC50): 65 nM
